Measurements as given in US7087809B2, “Natural herbicide resistance in wheat” (Natural Genes, Inc., priority 2003, dated 2006).

Legend:
Assay type in all cases: in vivo, Triticum aestivum
[1] = system: hard red spring wheat populations (W1 through W15); assay: Soaking of wheat seeds in glyphosate herbicide solution, planting in herbicide-treated growing medium, count of surviving plants; conditions: for Surviving plants after seed treatment: seed soaking and planting; for Number of Surviving Wheat Plants: approx. 5,000 seeds
Procedure: Preferably the wheat seeds are soaked in an aqueous solution of the herbicide. Commonly the herbicide is present in the solution in a concentration of approximately 1.5 to 6 percent by weight, and most preferably in a concentration of approximately 2 percent by weight. Commonly the wheat seeds are simply immersed in the liquid comprising the herbicide. The soaking of wheat seeds is conducted for a period of time that is sufficient for the herbicide to reach the embryos of the wheat seeds. […] The liquid comprising the herbicide can be simply provided at room temperature when the wheat seeds are in contact with the liquid and are undergoing such soaking.
Alternatively, such screening of the resulting wheat plants for herbicide resistance can include the presence of the herbicide in the growing medium where the resulting seeds are planted. Good results are obtained in a preferred embodiment when one gallon of a solution containing the herbicide in a concentration of approximately 1.5 to 6 percent by weight is added to each 4 gallons of soil. The presence of the herbicide in the soil helps to assure that an atypical wheat seed having a harder seed coat has not given a false indication of herbicide resistance by its survival up to the point of germination.
Some varieties have produced no surviving plants in tests to date. Some varieties have produced up to approximately 4 surviving plant per 5,000 seeds, others approximately 1 surviving plant per 5,000 seeds. The herbicide resistance of the resulting plants can be further confirmed by another contact (e.g., spraying) with the glyphosate herbicide.
Fifteen different known and publically available hard red spring wheat populations (W1 through W15) were chosen for evaluation and screening in accordance with the process of the present invention. Each of the starting materials was believed to lack herbicide resistance that is attributable to genetic engineering. Also, each population, as all other Triticum aestivium varieties, was regarded to be highly sensitive to glyphosate herbicide during previous observations.
Individual batches of each wheat population were initially immersed and were soaked in 2 percent aqueous solutions of glyphosate herbicide that were present at room temperature. The wheat seeds were provided in contact with the glyphosate herbicide for a period of 6 hours during which time the glyphosate herbicide reached the embryos of the seeds.
Each wheat seed population was labeled and next was planted in a 50/50 sandy-loam top soil/peat growing medium. The wheat seeds were present in flats containing the growing medium at a depth of approximately 2 inches. The same 2 percent by weight aqueous solutions of glyphosate herbicide were poured into each growing medium containing the wheat seeds.
The flats containing the wheat seeds next were placed in a greenhouse under ambient conditions in an effort to achieve germination. The sandy-loam top soil/peat growing medium was periodically watered in an effort to achieve near field growing conditions except for the presence of glyphosate herbicide.
Of those that did germinate some died within the first 2 days, and only 6 of the 15 wheat populations produced any plants following the soaking in the glyphosate herbicide as reported in Table I. These 6 populations were W1 to W5 and W15. Each plant was carefully preserved and tagged in order to preserve the lineage for those that survived the exposure to the glyphosate herbicide at the seed stage.

[2] = system: wheat plants of the 64 flats (progeny of surviving plants); assay: Spraying of progeny seedlings of surviving plants with glyphosate herbicide at the three-leaf stage in the greenhouse; conditions: 1.2 percent aqueous solution sprayed at three-leaf stage
Excerpt: Fifteen seeds from each head of each surviving plant were next planted in 64 individual flats in a greenhouse containing a like 50/50 sandy-loam top soil/peat growing medium. A designation system was adopted which began with the initial Wheat Population Designation (e.g., W1) next followed by the plant number (e.g., −1, −2 for W1), and finally followed by the head number (e.g., h1). The wheat plants of the 64 flats were identified as follows:
The seeds were encouraged to germinate and wheat plants emerged. At the three-leaf stage a 1.2 percent aqueous solution of glyphosate herbicide was applied to the plants by spraying. […] Remnant seeds from these 2 plants taken from heads W2-1-h10 and W2-4-h9 were planted in the greenhouse, germinated, and underwent self-pollination to increase the seeds. Plants derived from these seeds were not subjected to the glyphosate herbicide in an effort to maximize yield and to establish a germplasm base for further testing. W2-1-h10 produced six healthy plants that were designated W2-1-h10-p1-1a through -6a. The “a” designation served to specify that the generation was not treated with glyphosate herbicide. Similarly, W2-4-h9 produced 10 plants that were designated W2-4-h9-p1-1a through 10a. All plants were allowed to mature, to undergo self-pollination, and to produce seed heads. Each head was tagged to maintain a clear record of lineage. […]

[3] = system: wheat selections of 'WA7824'/'Zeke' pedigree; assay: Glyphosate herbicide treatment of selections grown in greenhouse flats (after field head row treatment); conditions: 1.2 percent by weight aqueous solution sprayed at three-leaf stage; for Number Killed by Glyphosate Herbicide Treatment / Number of Survivors of Glyphosate Herbicide Treatment: greenhouse flats
Excerpt: The wheat seedlings arising from the germination of this planting were allowed to establish and grow to the three-leaf stage. At this stage of growth glyphosate herbicide was applied to the plants at a rate of 32 oz. per Acre. Survivors of this treatment were allowed to mature, to undergo self-pollination, and the heads from each plant were tagged, removed, and placed in individual containers to ensure a record of continuous lineage from the plants used in the increase (i.e., W2-1-h10-p1-la through 6a and W2-4-h9-p1-la through 10a). Seeds from each head removed from the surviving plants that were exposed to glyphosate herbicide in the field head row plots next were planted in flats in the greenhouse for germination and seedling establishment. The seeds from each head were planted in separate flats to maintain the integrity of each line. At the three-leaf stage, the resulting seedlings were sprayed with an aqueous 1.2 percent by weight solution of glyphosate herbicide. Surviving plants were allowed to grow to maturity, to undergo self-pollination, and to produce heads and seeds. This was done to ensure that the survivors of the glyphosate herbicide treatment also remained fertile and produced viable seeds.

## O=C(O)CNCP(=O)(O)O [glyphosate herbicide, N-(phosphonomethyl)glycine]
[1]; approx. 75,000 seeds of 15 populations, 2 percent aqueous glyphosate, 6 hours soak, observed 10 to 15 days
  Germination of glyphosate herbicide-treated seeds: failed to germinate
[1]; other varieties
  Surviving plants after seed treatment: approximately 1 surviving plant per 5,000 seeds
[1]; populations W1 through W15, 2 percent aqueous glyphosate, 6 hours soak
  Number of wheat populations (of 15) that produced any plants following the soaking: 6
[1]; some varieties
  Surviving plants after seed treatment: ≤ 4 surviving plant per 5,000 seeds
[1]; wheat population W1 ('ID377'/'WestBred 926'), 2 percent aqueous glyphosate, 6 hours soak, same solution in growing medium
  Number of Surviving Wheat Plants: 4
[1]; wheat population W2 ('WA7824'/'Zeke'), 2 percent aqueous glyphosate, 6 hours soak, same solution in growing medium
  Number of Surviving Wheat Plants: 5
[1]; wheat population W3 ('SLW97606'/'WestBred 926'), 2 percent aqueous glyphosate, 6 hours soak
  Number of Surviving Wheat Plants: 1
[1]; wheat population W4 ('SLW97606'/'WestBred 936'), 2 percent aqueous glyphosate, 6 hours soak
  Number of Surviving Wheat Plants: 2
[1]; wheat population W5 ('SLW97606'/'Zeke'), 2 percent aqueous glyphosate, 6 hours soak
  Number of Surviving Wheat Plants: 1
[1]; wheat population W6 ('BZ692-108b'/'Calorwa'), 2 percent aqueous glyphosate, 6 hours soak
  Number of Surviving Wheat Plants: 0
[1]; wheat population W7 ('BZ966-472w'/'Pristine'), 2 percent aqueous glyphosate, 6 hours soak
  Number of Surviving Wheat Plants: 0
[1]; wheat population W8 ('Hank'/'BZ994-484'), 2 percent aqueous glyphosate, 6 hours soak
  Number of Surviving Wheat Plants: 0
[1]; wheat population W9 ('MT9959'/'Hank'), 2 percent aqueous glyphosate, 6 hours soak
  Number of Surviving Wheat Plants: 0
[1]; wheat population W10 ('McNeal'/'Parshall'), 2 percent aqueous glyphosate, 6 hours soak
  Number of Surviving Wheat Plants: 0
[1]; wheat population W11 ('Reeder'/'Conan'), 2 percent aqueous glyphosate, 6 hours soak
  Number of Surviving Wheat Plants: 0
[1]; wheat population W12 ('WA7899'/'Jefferson'), 2 percent aqueous glyphosate, 6 hours soak
  Number of Surviving Wheat Plants: 0
[1]; wheat population W13 ('Alpowa'/'Zak'), 2 percent aqueous glyphosate, 6 hours soak
  Number of Surviving Wheat Plants: 0
[1]; wheat population W14 ('Vanna'/'Zak'), 2 percent aqueous glyphosate, 6 hours soak
  Number of Surviving Wheat Plants: 0
[1]; wheat population W15 ('Zak'/'BZ698-41'), 2 percent aqueous glyphosate, 6 hours soak
  Number of Surviving Wheat Plants: 4
[2]; seedlings derived from W1-2
  Seedlings surviving the application of glyphosate herbicide: single seedling
[2]; seedlings derived from W2-4
  Seedlings surviving the application of glyphosate herbicide: single seedling
[3]; all selections from field head rows
  Tolerance of plants of the selections to the herbicide: All selections generated plants that were tolerant to the herbicide
[3]; selection W2-1-h10-p16a-h2-h1
  Number Killed by Glyphosate Herbicide Treatment: 0
  Number of Survivors of Glyphosate Herbicide Treatment: 10
[3]; selection W2-1-h10-p16a-h2-h5
  Number Killed by Glyphosate Herbicide Treatment: 0
  Number of Survivors of Glyphosate Herbicide Treatment: 15
[3]; selection W2-4-h9-p13a-h2-h17
  Number Killed by Glyphosate Herbicide Treatment: 0
  Number of Survivors of Glyphosate Herbicide Treatment: 3
[3]; selection W2-4-h9-p13a-h2-h18
  Number Killed by Glyphosate Herbicide Treatment: 0
  Number of Survivors of Glyphosate Herbicide Treatment: 5
